# According to ChEMBL document CHEMBL1201861, “Genomics of Drug Sensitity in Cancer screening data, Wellcome Trust Sanger Institute”:
# What was measured:
# Assay in all cases: cells
# COLO-741 = assay type: functional, cell-based, Homo sapiens; conditions: Homo sapiens, COLO-741
# Description: SANGER: Inhibition of human COLO-741 cell growth in a cell viability assay.
# COR-L23 = assay type: functional, cell-based, Homo sapiens; conditions: Homo sapiens, COR-L23;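 further: cell viability assay measuring how strongly compounds suppress growth of COR-L23 cells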
# Description: SANGER: Inhibition of human COR-L23 cell growth in a cell viability assay.
# EFO-21 = assay type: functional, cell-based, Homo sapiens; conditions: Homo sapiens, EFO-21;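 further: growth inhibition of EFO-21 cells measured with a viability assay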
# Description: SANGER: Inhibition of human EFO-21 cell growth in a cell viability assay.
# ES4 = assay type: functional, cell-based, Homo sapiens; conditions: Homo sapiens, ES4;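 further: growth inhibition of human ES4 cells, read out by a cell viability assay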
# Description: SANGER: Inhibition of human ES4 cell growth in a cell viability assay.
# G-401 = assay type: functional, cell-based, Homo sapiens; conditions: Homo sapiens, G-401
# Description: SANGER: Inhibition of human G-401 cell growth in a cell viability assay.
# GCT = assay type: functional, cell-based, Homo sapiens; conditions: Homo sapiens, GCT;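 further: GCT cell line proliferation inhibition, read out with a cell viability assay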
# Description: SANGER: Inhibition of human GCT cell growth in a cell viability assay.
# HCC1419 = assay type: functional, cell-based, Homo sapiens; conditions: Homo sapiens, HCC1419;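 further: growth inhibition of human HCC1419 cells, read out as cell viability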
# Description: SANGER: Inhibition of human HCC1419 cell growth in a cell viability assay.
# HOS = assay type: functional, cell-based, Homo sapiens; conditions: Homo sapiens, HOS;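 further: growth inhibition of human HOS cells, read out with a cell viability assay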
# Description: SANGER: Inhibition of human HOS cell growth in a cell viability assay.
# Huh-7 = assay type: functional, cell-based, Homo sapiens; conditions: Homo sapiens, Huh-7;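 further: HuH-7 cell growth inhibition, read out with a cell viability assay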
# Description: SANGER: Inhibition of human HuH-7 cell growth in a cell viability assay.
# IGR-1 = assay type: functional, cell-based, Homo sapiens; conditions: Homo sapiens, IGR-1;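 further: growth inhibition of human IGR-1 cells, read out with a cell viability assay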
# Description: SANGER: Inhibition of human IGR-1 cell growth in a cell viability assay.
# IST-MEL1 = assay type: functional, cell-based, Homo sapiens; conditions: Homo sapiens, IST-MEL1;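 further: growth inhibition of the cell line, read out with a cell viability assay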
# Description: SANGER: Inhibition of human IST-MEL1 cell growth in a cell viability assay.
# KLE = assay type: functional, cell-based, Homo sapiens; conditions: Homo sapiens, KLE;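 further: growth inhibition of human KLE cells, read out with a cell viability assay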
# Description: SANGER: Inhibition of human KLE cell growth in a cell viability assay.
# KYSE-150 cell line = assay type: functional, cell-based, Homo sapiens; conditions: Homo sapiens, KYSE-150;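 further: growth inhibition of human KYSE-150 cells, read out with a cell viability assay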
# Description: SANGER: Inhibition of human KYSE-150 cell growth in a cell viability assay.
# KYSE-270 = assay type: functional, cell-based, Homo sapiens; conditions: Homo sapiens, KYSE-270;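 further: cell growth inhibition measured with a viability assay in the human KYSE-270 line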
# Description: SANGER: Inhibition of human KYSE-270 cell growth in a cell viability assay.
# LCLC-103H cell line = assay type: functional, cell-based, Homo sapiens; conditions: Homo sapiens, LCLC-103H
# Description: SANGER: Inhibition of human LCLC-103H cell growth in a cell viability assay.
# LS-513 = assay type: functional, cell-based, Homo sapiens; conditions: Homo sapiens, LS-513
# Description: SANGER: Inhibition of human LS-513 cell growth in a cell viability assay.
# LU-134-A = assay type: functional, cell-based; conditions: Homo sapiens
# Description: SANGER: Inhibition of human LU-134-A cell growth in a cell viability assay.
# MC-IXC = assay type: functional, cell-based, Homo sapiens; conditions: Homo sapiens, MC-IXC;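 further: growth inhibition of MC-IXC cells, read out with a cell viability assay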
# Description: SANGER: Inhibition of human MC-IXC cell growth in a cell viability assay.
# ME-180 = assay type: functional, cell-based; conditions: Homo sapiens;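 further: cell viability assay measuring growth inhibition of ME-180 cells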
# Description: SANGER: Inhibition of human ME-180 cell growth in a cell viability assay.
# MG-63 = assay type: functional, cell-based, Homo sapiens; conditions: Homo sapiens, MG-63;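 further: growth inhibition of human MG-63 cells, read out with a cell viability assay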
# Description: SANGER: Inhibition of human MG-63 cell growth in a cell viability assay.
# NCI-H1092 = assay type: functional, cell-based; conditions: Homo sapiens;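 further: cell growth inhibition measured with a cell viability assay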
# Description: SANGER: Inhibition of human NCI-H1092 cell growth in a cell viability assay.
# NCI-H1395 = assay type: functional, cell-based, Homo sapiens; conditions: Homo sapiens, NCI-H1395;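 further: cell viability assay read-out quantifying reduced proliferation of human NCI-H1395 cells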
# Description: SANGER: Inhibition of human NCI-H1395 cell growth in a cell viability assay.
# NCI-H1755 = assay type: functional, cell-based, Homo sapiens; conditions: Homo sapiens, NCI-H1755;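 further: cell viability readout used to measure growth inhibition of NCI-H1755 cells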
# Description: SANGER: Inhibition of human NCI-H1755 cell growth in a cell viability assay.
# NCI-H1793 = assay type: functional, cell-based, Homo sapiens; conditions: Homo sapiens, NCI-H1793;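 further: cell growth inhibition, read out by a cell viability assay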
# Description: SANGER: Inhibition of human NCI-H1793 cell growth in a cell viability assay.
# NCI-H2087 = assay type: functional, cell-based, Homo sapiens; conditions: Homo sapiens, NCI-H2087;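 further: growth inhibition determined with a cell viability readout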
# Description: SANGER: Inhibition of human NCI-H2087 cell growth in a cell viability assay.
# NCI-H2126 = assay type: functional, cell-based, Homo sapiens; conditions: Homo sapiens, NCI-H2126;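 further: growth inhibition of the cancer cell line, determined with a cell viability readout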
# Description: SANGER: Inhibition of human NCI-H2126 cell growth in a cell viability assay.
# NCI-H2452 = assay type: functional, cell-based, Homo sapiens; conditions: Homo sapiens, NCI-H2452;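 further: growth inhibition of NCI-H2452 cells, read out with a cell viability assay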
# Description: SANGER: Inhibition of human NCI-H2452 cell growth in a cell viability assay.
# NCI-H747 = assay type: functional, cell-based; conditions: Homo sapiens;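 further: growth inhibition of human NCI-H747 cells, read out by a cell viability assay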
# Description: SANGER: Inhibition of human NCI-H747 cell growth in a cell viability assay.
# OVCAR-5 = assay type: functional, cell-based, Homo sapiens; conditions: Homo sapiens, OVCAR-5;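 further: growth inhibition of human OVCAR-5 cells, read out with a cell viability assay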
# Description: SANGER: Inhibition of human OVCAR-5 cell growth in a cell viability assay.
# P30-OHK = assay type: functional, cell-based; conditions: Homo sapiens;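 further: growth inhibition of the P30-OHK cell line, read out with a cell viability assay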
# Description: SANGER: Inhibition of human P30-OHK cell growth in a cell viability assay.
# PA-1 = assay type: functional, cell-based, Homo sapiens; conditions: Homo sapiens, PA-1;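 further: IC50 for suppression of PA-1 cell proliferation, determined with a cell viability read-out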
# Description: SANGER: Inhibition of human PA-1 cell growth in a cell viability assay.
# QIMR-WIL = assay type: functional, cell-based; conditions: Homo sapiens;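 further: growth inhibition of QIMR-WIL cells, read out with a cell viability assay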
# Description: SANGER: Inhibition of human QIMR-WIL cell growth in a cell viability assay.
# RH-1 = assay type: functional, cell-based, Homo sapiens; conditions: Homo sapiens, RH-1;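 further: growth inhibition of human RH-1 cells, read out with a cell viability assay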
# Description: SANGER: Inhibition of human RH-1 cell growth in a cell viability assay.
# Ramos-2G6-4C10 = assay type: functional, cell-based; conditions: Homo sapiens;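 further: growth inhibition of the cell line, measured by a cell viability read-out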
# Description: SANGER: Inhibition of human Ramos-2G6-4C10 cell growth in a cell viability assay.
# SF-268 = assay type: functional, cell-based, Homo sapiens; conditions: Homo sapiens, SF-268;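 further: growth inhibition of SF-268 cells determined with a cell viability assay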
# Description: SANGER: Inhibition of human SF268 cell growth in a cell viability assay.
# SK-MEL-30 = assay type: functional, cell-based; conditions: Homo sapiens;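 further: growth inhibition of SK-MEL-30 cells, determined with a cell viability assay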
# Description: SANGER: Inhibition of human SK-MEL-30 cell growth in a cell viability assay.
# SK-NEP-1 = assay type: functional, cell-based; conditions: Homo sapiens;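 further: growth inhibition of human SK-NEP-1 cells, read out by a cell viability assay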
# Description: SANGER: Inhibition of human SK-NEP-1 cell growth in a cell viability assay.
# SW1417 = assay type: functional, cell-based, Homo sapiens; conditions: Homo sapiens, SW1417;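 further: growth inhibition of human SW1417 cells, read out with a cell viability assay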
# Description: SANGER: Inhibition of human SW1417 cell growth in a cell viability assay.
# SW1573 = assay type: functional, cell-based, Homo sapiens; conditions: Homo sapiens, SW1573;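 further: growth inhibition of SW1573 cells, read out with a cell viability assay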
# Description: SANGER: Inhibition of human SW1573 cell growth in a cell viability assay.
# SW1783 = assay type: functional, cell-based; conditions: Homo sapiens;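 further: cell growth inhibition measured with a viability assay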
# Description: SANGER: Inhibition of human SW1783 cell growth in a cell viability assay.
# SW684 = assay type: functional, cell-based, Homo sapiens; conditions: Homo sapiens, SW684;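 further: growth inhibition of human SW684 cells, measured by a cell viability assay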
# Description: SANGER: Inhibition of human SW684 cell growth in a cell viability assay.
# SW948 = assay type: functional, cell-based, Homo sapiens; conditions: Homo sapiens, SW948;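 further: growth inhibition of SW948 cells, read out with a cell viability assay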
# Description: SANGER: Inhibition of human SW948 cell growth in a cell viability assay.
# T-24 = assay type: functional, cell-based, Homo sapiens; conditions: Homo sapiens, T-24;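 further: growth inhibition of T-24 cells, read out with a cell viability assay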
# Description: SANGER: Inhibition of human T-24 cell growth in a cell viability assay.
# 639-V = assay type: functional, cell-based, Homo sapiens; conditions: Homo sapiens, 639-V;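 further: growth inhibition of 639-V cells, read out with a cell viability assay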
# Description: SANGER: Inhibition of human 639-V cell growth in a cell viability assay.
# A-375 = assay type: functional, cell-based, Homo sapiens; conditions: Homo sapiens, A-375;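 further: growth inhibition of A375 cells, read out with a cell viability assay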
# Description: SANGER: Inhibition of human A375 cell growth in a cell viability assay.
# A388 = assay type: functional, cell-based, Homo sapiens; conditions: Homo sapiens, A388;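 further: growth inhibition of human A388 cells, read out with a cell viability assay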
# Description: SANGER: Inhibition of human A388 cell growth in a cell viability assay.
# C8166 = assay type: functional, cell-based; conditions: Homo sapiens;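 further: growth inhibition of human C8166 cells measured by a cell viability assay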
# Description: SANGER: Inhibition of human C8166 cell growth in a cell viability assay.
# CAL-120 = assay type: functional, cell-based, Homo sapiens; conditions: Homo sapiens, CAL-120;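 further: cell growth inhibition, read out as cell viability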
# Description: SANGER: Inhibition of human CAL-120 cell growth in a cell viability assay.
# CAL-51 = assay type: functional, cell-based, Homo sapiens; conditions: Homo sapiens, CAL-51;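 further: human CAL-51 cell line, growth inhibition read out via a cell viability assay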
# Description: SANGER: Inhibition of human CAL-51 cell growth in a cell viability assay.
# U-87 MG = assay type: functional, cell-based, U-87MG ATCC; conditions: Homo sapiens;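 further: growth inhibition of the cells measured with a viability assay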
# Description: SANGER: Inhibition of human U-87-MG cell growth in a cell viability assay.
# COLO-668 = assay type: functional, cell-based, Homo sapiens; conditions: Homo sapiens, COLO-668
# Description: SANGER: Inhibition of human COLO-668 cell growth in a cell viability assay.
structure (smiles),measurement,setting,value
Cn1cc(C2=C(c3ccc(Cl)cc3Cl)C(=O)NC2=O)c2ccccc21 [SB-216763],IC50,COLO-741,> 10000 nM
same,IC50,COR-L23,> 10000 nM
same,IC50,EFO-21,> 10000 nM
same,IC50,ES4,> 10000 nM
same,IC50,G-401,> 10000 nM
same,IC50,GCT,> 10000 nM
same,IC50,HCC1419,> 10000 nM
same,IC50,HOS,> 10000 nM
same,IC50,Huh-7,> 10000 nM
same,IC50,IGR-1,> 10000 nM
same,IC50,IST-MEL1,> 10000 nM
same,IC50,KLE,> 10000 nM
same,IC50,KYSE-150 cell line,> 10000 nM
same,IC50,KYSE-270,> 10000 nM
same,IC50,LCLC-103H cell line,> 10000 nM
same,IC50,LS-513,> 10000 nM
same,IC50,LU-134-A,> 10000 nM
same,IC50,MC-IXC,> 10000 nM
same,IC50,ME-180,> 10000 nM
same,IC50,MG-63,> 10000 nM
same,IC50,NCI-H1092,> 10000 nM
same,IC50,NCI-H1395,> 10000 nM
same,IC50,NCI-H1755,> 10000 nM
same,IC50,NCI-H1793,> 10000 nM
same,IC50,NCI-H2087,> 10000 nM
same,IC50,NCI-H2126,> 10000 nM
same,IC50,NCI-H2452,> 10000 nM
same,IC50,NCI-H747,> 10000 nM
same,IC50,OVCAR-5,> 10000 nM
same,IC50,P30-OHK,> 10000 nM
same,IC50,PA-1,> 10000 nM
same,IC50,QIMR-WIL,> 10000 nM
same,IC50,RH-1,> 10000 nM
same,IC50,Ramos-2G6-4C10,> 10000 nM
same,IC50,SF-268,> 10000 nM
same,IC50,SK-MEL-30,> 10000 nM
same,IC50,SK-NEP-1,> 10000 nM
same,IC50,SW1417,> 10000 nM
same,IC50,SW1573,> 10000 nM
same,IC50,SW1783,> 10000 nM
same,IC50,SW684,> 10000 nM
same,IC50,SW948,> 10000 nM
same,IC50,T-24,> 10000 nM
same,IC50,639-V,> 10000 nM
same,IC50,A-375,> 10000 nM
same,IC50,A388,> 10000 nM
same,IC50,C8166,> 10000 nM
same,IC50,CAL-120,> 10000 nM
same,IC50,CAL-51,> 10000 nM
same,IC50,U-87 MG,> 10000 nM
same,IC50,COLO-668,> 10000 nM
C=CCNC1=C2C[C@@H](C)C[C@H](OC)[C@H](O)[C@@H](C)/C=C(\C)[C@H](OC(N)=O)[C@@H](OC)/C=C\C=C(/C)C(=O)NC(=CC1=O)C2=O [TANESPIMYCIN],IC50,COLO-741,> 1000 nM
same,IC50,COR-L23,468 nM
same,IC50,EFO-21,> 1000 nM
same,IC50,ES4,> 1000 nM
same,IC50,G-401,104 nM
same,IC50,GCT,> 1000 nM
same,IC50,HCC1419,146 nM
same,IC50,HOS,417 nM
same,IC50,Huh-7,> 1000 nM
same,IC50,IGR-1,790 nM
same,IC50,IST-MEL1,< 3.91 nM
same,IC50,KLE,> 1000 nM
same,IC50,KYSE-150 cell line,52.4 nM
same,IC50,KYSE-270,231 nM
same,IC50,LCLC-103H cell line,> 1000 nM
same,IC50,LS-513,240 nM
same,IC50,LU-134-A,261 nM
same,IC50,MC-IXC,> 1000 nM
same,IC50,ME-180,28.9 nM
same,IC50,MG-63,> 1000 nM
same,IC50,NCI-H1092,> 1000 nM
same,IC50,NCI-H1395,187 nM
same,IC50,NCI-H1755,63.4 nM
same,IC50,NCI-H1793,385 nM
same,IC50,NCI-H2087,174 nM
same,IC50,NCI-H2126,568 nM
same,IC50,NCI-H2452,140 nM
same,IC50,NCI-H747,242 nM
same,IC50,OVCAR-5,34.8 nM
same,IC50,P30-OHK,> 1000 nM
same,IC50,PA-1,954 nM
same,IC50,QIMR-WIL,851 nM
same,IC50,RH-1,> 1000 nM
same,IC50,Ramos-2G6-4C10,> 1000 nM
same,IC50,SF-268,643 nM
same,IC50,SK-MEL-30,912 nM
same,IC50,SK-NEP-1,> 1000 nM
same,IC50,SW1417,> 1000 nM
same,IC50,SW1573,148 nM
same,IC50,SW1783,340 nM
same,IC50,SW684,65.9 nM
same,IC50,SW948,> 1000 nM
same,IC50,T-24,332 nM
same,IC50,639-V,150 nM
same,IC50,A-375,128 nM
same,IC50,A388,765 nM
same,IC50,C8166,> 1000 nM
same,IC50,CAL-120,534 nM
same,IC50,CAL-51,14 nM
same,IC50,U-87 MG,103 nM
same,IC50,COLO-668,> 1000 nM
